Patent US11331328B2, “Compositions and methods for inhibiting antiapoptotic Bcl-2 proteins as anti-aging agents” (priority 2014, dated 2022)

Key:
[1] = tested on: IL-1α, TNFα, CCL-5, CXCL-10 mRNA; test: SASP mRNA levels in lungs of TBI p16-3MR mice (qRT-PCR); type: in vivo, mouse; details: 6 Gy TBI; 2 treatment cycles
Description: To measure p21 and GAPDH mRNA levels in WI-38 cells and IL-1α, TNFα, CCL-5, and CXCL-10 mRNA levels in mouse tissues, SYBR assay kit was used (Applied biosystems in life technologies). Briefly, 1 μl cDNA was mixed with 7.5 μl SYBR Green PCR Master Mix and 0.2 μl of primers (Table 5). Samples were then added with 6.30 μl of H2O to give a total 15 μl of mixture. qPCR conditions were as follows: 95° C. for 10 min, 40×(95° C. for 15 s and 60° C. for 1 min), 95° C. for […], 95° C. for 15 min. All reactions were run in triplicate on an ABI StepOnePlus Real-Time PCR System.

IR-induced WI-38 SCs = test: Apoptosis analysis (Annexin V/PI flow cytometry); type: cell-based, human; details: 1.25 μM ABT263, 24 h, with or without 20 μM Q-VD-OPh
Description: Cells were seeded into a 6-well plate at 4-6×10^5 cells/well. […] The cells were harvested 24 h after treatment and resuspended in 1× annexin V binding buffer (BD Biosciences) at 1×10^6 cells/ml. An aliquot (100 μl) of the cell suspension was incubated with 5 μl of Annexin V-FITC (BD Biosciences) or PI (1 mg/ml) for 15 min at room temperature in the dark. After addition of 400 μl of 1× binding buffer, 10,000 cells per sample were analyzed by a BD LSR H flow cytometer (BD Biosciences).

human IMR-90 fibroblasts = test: Cell viability, IR-SC vs NC, IMR-90 fibroblasts; type: cell-based; details: increasing concentrations, 72 h
Description: Human WI-38 fibroblasts (WI38 cells, #CCL-75™), human IMR-90 fibroblasts (IMR90 cells, #CCL-186™), human renal epithelial cells (REC cells, #PCS-400-012™) were obtained from ACTT (Manassas, Va., USA). Mouse embryonic fibroblasts (MEF) were isolated from mouse embryos as described^1. All cells were cultured in a complete medium (CM) (Dulbecco's Modified Eagle Medium supplemented with 10% fetal bovine serum [FBS], 100 U/ml penicillin, and 100 μg/ml streptomycin [all from Atlanta Biologicals, Norcross, Ga., and USA]) in a humidified incubator at 37° C. and 5% CO2. Low passages of WI-38 cells (<25), IMR-90 (<25), REC cells (<25) and MEF (<3) were used as non-senescent controls or for induction of senescence to avoid replicative senescence. To induce replicative senescence, WI-38 cells were subcultivated until cell division ceased after about 38 passages or 60 population doublings (FIG. 5)^2. […]
Flow cytometry: Non-senescent and senescent cells were seeded into wells of 24- or 48-well at about 70% of confluence. […] Viable cells (PI^− cells) were numerated by flow cytometry at a constant flow rate and calculated as a percentage of control cells treated with vehicle using the formula: percentage of control=(Ndrug/NC)×100, where Ndrug and NC represent the absolute number of PI^− viable cells of drug-treated and vehicle-treated cells, respectively.

CC1(C)CCC(c2ccc(Cl)cc2)=C(CN2CCN(c3ccc(C(=O)NS(=O)(=O)c4ccc(N[C@H](CCN5CCOCC5)CSc5ccccc5)c(S(=O)(=O)C(F)(F)F)c4)cc3)CC2)C1 [ABT263, navitoclax]
SASP in lungs [1]: suppressed the SASP induced by TBI
apoptosis induction (IR-induced WI-38 SCs): selectively killed SCs by inducing apoptosis, which was abrogated by QVD
viable cells, IR-SC vs NC (human IMR-90 fibroblasts): kills IR-induced senescent cells (IR-SC) but not non-senescent cells (NC)
